Test system: MSCs
Assay: Whole genome expression analysis (Illumina microarray) of treated MSCs
Format: cell-based, Human
Experimental: MSCs were seeded in T25 flasks at 5000 cells/cm^2 and allowed to attach overnight in proliferation medium. […] After 48 hours, RNA was isolated as described above. From 500 ng of RNA, cRNA was synthesized using the Illumina TotalPrep RNA amplification Kit (Ambion), according to the manufacturer's protocol and the quality of RNA and cRNA was verified on a Bioanalyzer 2100 (Agilent). Microarrays were performed using Illumina HT-12 v4 expression Beadchips, according to the manufacturer's protocol. Briefly, 750 ng of cRNA was hybridized on the array overnight after which the array was washed and blocked. Then, by addition of streptavidin Cy-3 a fluorescent signal was developed. Arrays were scanned on an Illumina iScan reader and raw intensity values were background corrected in GenomeStudio (Illumina). Further data processing and statistical testing were performed with R and Bioconductor statistical software (www.bioconductor.org), using package lumi. Raw intensity values were transformed using variance stabilization and a quantile normalization was performed. A linear modelling approach with empirical Bayesian methods, as implemented in Limma package (54), was applied for differential expression analysis of the resulting probe-level expression values. A gene list, containing only those genes with an absolute 1.5-fold change between different treatments, was uploaded to Ingenuity Pathway Analysis (IPA) software and used for core analysis. Pathways or networks with a p-value of 0.05 were considered statistically significant.

c1cnc2c(c1)ccc1cccnc12 [PHE, 1, 10-phenanthroline]
logFC(D142_PHE - D142_BAS) IL6 (ProbeID ILMN_1699651): -2,31
logFC(D142_PHE - D142_BAS) RRAGD (ProbeID ILMN_1699772): 3,13
logFC(D142_PHE - D142_BAS) TSPAN18 (ProbeID ILMN_1699980): -2,03
logFC(D142_PHE - D142_BAS) QPRT (ProbeID ILMN_1700268, PHE vs BAS): -2,59
logFC(D142_PHE - D142_BAS) LPAR1 (ProbeID ILMN_1701441, PHE vs BAS): -2,35
logFC(D142_PHE - D142_BAS) SULF1 (ProbeID ILMN_1702363, PHE vs BAS): -2,90
logFC(D142_PHE - D142_BAS) AXUD1 (ProbeID ILMN_1703123): 2,51
logFC(D142_PHE - D142_BAS) FEM1C (ProbeID ILMN_1703330): 2,53
logFC(D142_PHE - D142_BAS) FHL3 (ProbeID ILMN_1703558): -2,34
logFC(D142_PHE - D142_BAS) TNFRSF19 (ProbeID ILMN_1704154): -2,24
logFC(D142_PHE - D142_BAS) SLC6A10P (ProbeID ILMN_1704446): 3,23
logFC(D142_PHE - D142_BAS) PTGR1 (ProbeID ILMN_1704531): 2,56
logFC(D142_PHE - D142_BAS) TGM2 (ProbeID ILMN_1705750, PHE vs BAS): -2,98
logFC(D142_PHE - D142_BAS) DSE (ProbeID ILMN_1706498): -2,19
logFC(D142_PHE - D142_BAS) TFPI (ProbeID ILMN_1707124): 2,04
logFC(D142_PHE - D142_BAS) LRIG1 (ProbeID ILMN_1707342): 2,82
logFC(D142_PHE - D142_BAS) ANGPTL4 (ProbeID ILMN_1707727): 7,28
logFC(D142_PHE - D142_BAS) CNN2 (ProbeID ILMN_1708486): -2,15
logFC(D142_PHE - D142_BAS) ACAT2 (ProbeID ILMN_1708672): -2,03
logFC(D142_PHE - D142_BAS) ADM (ProbeID ILMN_1708934): 2,48
logFC(D142_PHE - D142_BAS) C9orf46 (ProbeID ILMN_1709043): -2,08
logFC(D142_PHE - D142_BAS) EMILIN1 (ProbeID ILMN_1711439): -2,30
logFC(D142_PHE - D142_BAS) FAM20C (ProbeID ILMN_1712684): -2,12
logFC(D142_PHE - D142_BAS) WISP1 (ProbeID ILMN_1713499): -2,11
logFC(D142_PHE - D142_BAS) UBE2C (ProbeID ILMN_1714730): -2,16
logFC(D142_PHE - D142_BAS) LOC346887 (ProbeID ILMN_1714741): 2,46
logFC(D142_PHE - D142_BAS) NNMT (ProbeID ILMN_1715508, PHE vs BAS): -2,62
logFC(D142_PHE - D142_BAS) ENAH (ProbeID ILMN_1716552): -2,13
logFC(D142_PHE - D142_BAS) NGF (ProbeID ILMN_1716608): 2,06
logFC(D142_PHE - D142_BAS) TPM1 (ProbeID ILMN_1716687): -2,28
logFC(D142_PHE - D142_BAS) MYOM2 (ProbeID ILMN_1716733): 2,05
logFC(D142_PHE - D142_BAS) TXNRD1 (ProbeID ILMN_1717056): 2,75
logFC(D142_PHE - D142_BAS) C5orf46 (ProbeID ILMN_1718866): 3,15
logFC(D142_PHE - D142_BAS) BNIP3L (ProbeID ILMN_1718961): 2,88
logFC(D142_PHE - D142_BAS) FH (ProbeID ILMN_1719392, PHE vs BAS): -2,67
logFC(D142_PHE - D142_BAS) TNC (ProbeID ILMN_1719759, PHE vs BAS): -3,17
logFC(D142_PHE - D142_BAS) SLC7A5 (ProbeID ILMN_1720373): 2,69
logFC(D142_PHE - D142_BAS) CA12 (ProbeID ILMN_1720998): 2,41
logFC(D142_PHE - D142_BAS) JMJD1A (ProbeID ILMN_1722532): 3,45
logFC(D142_PHE - D142_BAS) HK2 (ProbeID ILMN_1723486): 2,90
logFC(D142_PHE - D142_BAS) IFI44L (ProbeID ILMN_1723912): -2,15
logFC(D142_PHE - D142_BAS) BNIP3 (ProbeID ILMN_1724658): 3,47
logFC(D142_PHE - D142_BAS) RIOK3 (ProbeID ILMN_1724700): 2,40
logFC(D142_PHE - D142_BAS) CTHRC1 (ProbeID ILMN_1725090, PHE vs BAS): -2,95
logFC(D142_PHE - D142_BAS) CA9 (ProbeID ILMN_1725139): 3,69
logFC(D142_PHE - D142_BAS) GSTK1 (ProbeID ILMN_1725241): -2,02
logFC(D142_PHE - D142_BAS) SLC3A2 (ProbeID ILMN_1726456): 2,24
logFC(D142_PHE - D142_BAS) CD248 (ProbeID ILMN_1726589): -2,13
logFC(D142_PHE - D142_BAS) OLFML3 (ProbeID ILMN_1727532, PHE vs BAS): -3,25
logFC(D142_PHE - D142_BAS) AKR1A1 (ProbeID ILMN_1728047): -2,21
logFC(D142_PHE - D142_BAS) PRC1 (ProbeID ILMN_1728934, PHE vs BAS): -2,53
logFC(D142_PHE - D142_BAS) COL5A2 (ProbeID ILMN_1729117): -2,21
logFC(D142_PHE - D142_BAS) C1QTNF6 (ProbeID ILMN_1729288): -2,08
logFC(D142_PHE - D142_BAS) LEPR (ProbeID ILMN_1731966): -2,03
logFC(D142_PHE - D142_BAS) SHB (ProbeID ILMN_1732612): 2,06
logFC(D142_PHE - D142_BAS) STEAP1 (ProbeID ILMN_1733094, PHE vs BAS): -2,54
logFC(D142_PHE - D142_BAS) RASSF7 (ProbeID ILMN_1733110): 2,83
logFC(D142_PHE - D142_BAS) COL12A1 (ProbeID ILMN_1733756, PHE vs BAS): -3,95
logFC(D142_PHE - D142_BAS) PPP1R3C (ProbeID ILMN_1736670): 2,44
logFC(D142_PHE - D142_BAS) TMEM119 (ProbeID ILMN_1738116, PHE vs BAS): -4,96
logFC(D142_PHE - D142_BAS) SLC1A3 (ProbeID ILMN_1738552): -2,18
logFC(D142_PHE - D142_BAS) PLAT (ProbeID ILMN_1738742): 2,16
logFC(D142_PHE - D142_BAS) PRRX1 (ProbeID ILMN_1739496, PHE vs BAS): -2,36
logFC(D142_PHE - D142_BAS) FAM117B (ProbeID ILMN_1739942): 2,48
logFC(D142_PHE - D142_BAS) CHSY3 (ProbeID ILMN_1740407, PHE vs BAS): -2,57
logFC(D142_PHE - D142_BAS) ALDOA (ProbeID ILMN_1741148): 2,28
logFC(D142_PHE - D142_BAS) RFX5 (ProbeID ILMN_1741200): -2,04
logFC(D142_PHE - D142_BAS) PRICKLE1 (ProbeID ILMN_1741356, PHE vs BAS): -2,37
logFC(D142_PHE - D142_BAS) C1QTNF5 (ProbeID ILMN_1744487, PHE vs BAS): -2,59
logFC(D142_PHE - D142_BAS) ERO1L (ProbeID ILMN_1744963): 3,84
logFC(D142_PHE - D142_BAS) CEP55 (ProbeID ILMN_1747016): -2,01
logFC(D142_PHE - D142_BAS) PSMB8 (ProbeID ILMN_1747195): -2,24
logFC(D142_PHE - D142_BAS) CDKN2D (ProbeID ILMN_1748883): 2,14
logFC(D142_PHE - D142_BAS) MZF1 (ProbeID ILMN_1749838): 2,45
logFC(D142_PHE - D142_BAS) EGLN1 (ProbeID ILMN_1749892): 2,72
logFC(D142_PHE - D142_BAS) IGFBP5 (ProbeID ILMN_1750324): 2,34
logFC(D142_PHE - D142_BAS) STXBP6 (ProbeID ILMN_1750912): 2,42
logFC(D142_PHE - D142_BAS) HIST1H4H (ProbeID ILMN_1751120): 2,86
logFC(D142_PHE - D142_BAS) C20orf46 (ProbeID ILMN_1751228): 2,17
logFC(D142_PHE - D142_BAS) P2RY11 (ProbeID ILMN_1752226): 2,23
logFC(D142_PHE - D142_BAS) FAM13A (ProbeID ILMN_1752510): 3,25
logFC(D142_PHE - D142_BAS) LMCD1 (ProbeID ILMN_1754969, PHE vs BAS): -2,67
logFC(D142_PHE - D142_BAS) PGK1 (ProbeID ILMN_1755749): 2,85
logFC(D142_PHE - D142_BAS) ALDOC (ProbeID ILMN_1755974): 2,83
logFC(D142_PHE - D142_BAS) ANKRD37 (ProbeID ILMN_1756417): 4,25
logFC(D142_PHE - D142_BAS) COQ2 (ProbeID ILMN_1756572, PHE vs BAS): -2,49
logFC(D142_PHE - D142_BAS) NDUFA4L2 (ProbeID ILMN_1756573): 5,61
logFC(D142_PHE - D142_BAS) MUC1 (ProbeID ILMN_1756992): 2,56
logFC(D142_PHE - D142_BAS) HCFC1R1 (ProbeID ILMN_1757877): 2,05
logFC(D142_PHE - D142_BAS) STC1 (ProbeID ILMN_1758164): 4,35
logFC(D142_PHE - D142_BAS) HIST1H2BD (ProbeID ILMN_1758623): 3,29
logFC(D142_PHE - D142_BAS) IDS (ProbeID ILMN_1758626): 2,05
logFC(D142_PHE - D142_BAS) FAM107B (ProbeID ILMN_1758672): 2,44

Source: patent publication EP2607478A1, “Phenanthroline treated MSC” (Universiteit Twente, priority 2011, dated 2013)
